Article PMC5077133, “Towards Development of Small Molecule Lipid II Inhibitors as Novel Antibiotics” (PLoS ONE, 2016)

Columns and labels:
[1] = tested on: A. baumanii ATCC 19606; assay: Antibacterial activity (MIC, broth dilution); type: cell-based, Acinetobacter baumanii; settings: CLSI, in µg/mL
Excerpt: Staphylococcus aureus ATCC 29213, Escherichia coli ATCC 25922, Enterococcus faecalis ATCC 29212, Streptococcus pneumonia ATCC 49619 and Acinetobacter baumanii ATCC 19606 were obtained from Microbiologics (St. Cloud, MN). E. faecalis ATCC 51575, ATCC 51299 and REMEL C99707 and E. faecium ATCC 51559 (MDR), REMEL IH79985 and REMEL C110914 were generously provided by the Laboratory of Pathology, University of Maryland Baltimore School of Medicine. Unless stated otherwise, chemicals and reagents were purchased from Sigma.
(§1) Determination of the Minimal Inhibitory Concentrations (MIC) by dilution was carried out by broth dilution according to CLSI standards.

[2] = tested on: HeLa cells; assay: Cytotoxicity against mammalian cells (MTS assay); type: cell-based
Experimental: The cytotoxicity concentration of antibacterial compounds that produces half maximal decrease in viability (CC50) against mammalian cells (HeLa, ATCC CCL-2.2) was determined as described. The effect of compounds on HeLa cell viability was assessed in triplicate by measuring the mitochondrial activity using MTS assays according to the manufacturer’s instructions (Cell Titer 96 proliferation assay, Promega). The cells were incubated for 72 hours in RPMI1640 medium containing the compounds at final concentrations ranging from 64 to 0.125 μg/ml. CC50 was determined using a standard curve of serially diluted untreated cells in each experiment.

[3] = tested on: E. cloacae ATCC 13047; assay: Antibacterial activity (MIC, broth dilution); type: cell-based; settings: CLSI
Experimental: as §1

[4] = tested on: P. aeruginosa ATCC 27853; assay: Antibacterial activity (MIC, broth dilution); type: cell-based; settings: CLSI
Experimental: as §1

[5] = tested on: S. aureus HFH-30123 (MRSA); assay: Antibacterial activity (MIC, broth dilution); type: cell-based; settings: CLSI
Experimental: as §1

[6] = tested on: E. aerogenes ATCC 13048; assay: Antibacterial activity (MIC, broth dilution); type: cell-based; settings: CLSI
Experimental: as §1

[7] = tested on: P. aeruginosa X13273; assay: Antibacterial activity (MIC, broth dilution); type: cell-based; settings: CLSI, in µg/mL
Experimental: as §1

[8] = tested on: E. faecium F118 (VRE); assay: Antibacterial activity (MIC, broth dilution); type: cell-based; settings: CLSI, in µg/mL
Experimental: as §1

[9] = tested on: K. pneumoniae NR-15411 (KPC); assay: Antibacterial activity (MIC, broth dilution); type: cell-based; settings: CLSI
Experimental: as §1

[10] = tested on: P. aeruginosa PA01; assay: Antibacterial activity (MIC, broth dilution); type: cell-based; settings: CLSI
Experimental: as §1

[11] = tested on: S. aureus MRSA 1094; assay: Antibacterial activity (MIC, broth dilution); type: cell-based; settings: CLSI
Experimental: as §1

[12] = tested on: E. faecium EF1509 (VRE); assay: Antibacterial activity (MIC, broth dilution); type: cell-based; settings: CLSI, in µg/mL
Experimental: as §1

[13] = tested on: K. pneumoniae NR-15410 (KPC); assay: Antibacterial activity (MIC, broth dilution); type: cell-based; settings: CLSI
Experimental: as §1

[14] = Lipid II binding by Surface Plasmon Resonance; settings: SPR, immobilized 3-Lipid II, 25°C
Experimental: Short-chain water-soluble Lipid II containing a lipid tail of three isoprene units was generated and purified essentially as described. Typically, M. flavus vesicles (120 μmol lipid-Pi) were incubated together with 500 μmol UDP-GlcNAc, 500 μmol UDP-MurNAC-pentapeptide and 400 μmol farnesyl phosphate in 100 mM Tris-HCl pH 8.0, 5 mM MgCl2. The incubation lasted two hours at room temperature for 3-P. The synthesis of 3-Lipid II was followed using RP-8 reversed phase TLC (Merck) developed in 75% methanol. For purification, the membranes were removed by centrifugation at 40,000 x g and the supernatant was collected and loaded on a C18 HPLC column and eluted with a linear gradient from 50 mM ammonium bicarbonate to 100% methanol in 30 minutes. Farnesyl-Lipid II (3-Lipid II) eluted at approximately 60% methanol. Its identity was confirmed by mass spectroscopy. Surface Plasmon Resonance binding experiments were carried out on a BIAcore T100 system (BIAcore Inc., Piscataway, NY) at 25°C. The assay buffer was 10 mM HEPES, 150 mM NaCl, 0.05% surfactant P20, pH 7.4 (± 3 mM EDTA) supplemented with 10% DMSO. 3-Lipid II (50 RUs) was immobilized on CM5 sensor chips using the amine-coupling chemistry recommended by the manufacturer. For initial determination of binding, compounds were introduced into the flow-cells (30 μl/min) in the running buffer at 10 μM. Resonance signals were corrected for nonspecific binding by subtracting the background of the control flow-cell. After each analysis, the sensor chip surfaces were regenerated with 50 mM NaOH for 30 s at a flow rate 100 μl/min, and equilibrated with the buffer prior to next injection. For binding kinetics studies, binding isotherms were analyzed with manufacturer-supplied software for BIAcore T100.

Structure (SMILES) | Antibacterial activity (MIC) A. baumanii ATCC 19606 [1] | CC50% (72 h HeLa cells) [2] | Antibacterial activity (MIC) E. cloacae ATCC 13047 [3] | Antibacterial activity (MIC) P. aeruginosa ATCC 27853 [4] | Antibacterial activity (MIC) S. aureus HFH-30123 (MRSA) [5] | Antibacterial activity (MIC) E. aerogenes ATCC 13048 [6] | Antibacterial activity (MIC) P. aeruginosa X13273 [7] | Antibacterial activity (MIC) E. faecium F118 (VRE) [8] | Antibacterial activity (MIC) K. pneumoniae NR-15411 (KPC) [9] | Antibacterial activity (MIC) P. aeruginosa PA01 [10] | Antibacterial activity (MIC) S. aureus MRSA 1094 [11] | Antibacterial activity (MIC) E. faecium EF1509 (VRE) [12] | Antibacterial activity (MIC) K. pneumoniae NR-15410 (KPC) [13] | Kd [14]
C(=C\c1cc(-c2ccccc2)cc(-c2ccccc2)[o+]1)/c1cc2c3c(c1)CCCN3CCC2.F[B-](F)(F)F [6jc-58] | 8 | <.78125 | 64 µg/mL | 64 µg/mL | 2 µg/mL | 32 µg/mL | 32 | 4 | 64 µg/mL | 64 µg/mL | 1.41 µg/mL | 4 | 45.3 µg/mL | 17 ± 4 µM
Cc1ccc(-c2cc(/C=C/c3ccc(N(C)C)cc3)[o+]c(-c3ccc(C)c(C)c3)c2)cc1C.F[B-](F)(F)F [6jc-59-1] | >=64 | <.78125 | ≥ 64 µg/mL | ≥ 64 µg/mL | 2 µg/mL | ≥ 64 µg/mL | >=64 | 4 | ≥ 64 µg/mL | ≥ 64 µg/mL | 2 µg/mL | 4 | ≥ 64 µg/mL | 1.9 ± 0.3 µM
Cc1ccc(-c2cc(/C=C/c3c[nH]c4ccccc34)[o+]c(-c3ccc(C)c(C)c3)c2)cc1C.F[B-](F)(F)F [6jc-59-3] | >=64 | 1.35 | ≥ 64 µg/mL | ≥ 64 µg/mL | 4 µg/mL | ≥ 64 µg/mL | >=64 | 8 | ≥ 64 µg/mL | ≥ 64 µg/mL | 4 µg/mL | 5.657 | ≥ 64 µg/mL | 27.9 ± 3 µM
CN(C)c1ccc(/C=C/c2cc(-c3ccc(C(C)(C)C)cc3)cc(-c3ccc(C(C)(C)C)cc3)[o+]2)cc1.F[B-](F)(F)F [6jc-60-1] | >=64 | <.78125 | ≥ 64 µg/mL | ≥ 64 µg/mL | 8 µg/mL | ≥ 64 µg/mL | >=64 | 8 | ≥ 64 µg/mL | ≥ 64 µg/mL | 8 µg/mL | 8 | ≥ 64 µg/mL | 37.9 ± 4 µM
CCc1ccc(-c2cc(/C=C/c3cc4c5c(c3)CCCN5CCC4)[o+]c(-c3ccc(CC)cc3)c2)cc1.F[B-](F)(F)F [6jc-69-1] | 32 | <.78125 | ≥ 64 µg/mL | ≥ 64 µg/mL | 2 µg/mL | ≥ 64 µg/mL | >=64 | 2 | ≥ 64 µg/mL | ≥ 64 µg/mL | 2 µg/mL | 2 | ≥ 64 µg/mL | 16.1 ± 0.3 µM
Cc1ccc(-c2cc(/C=C/c3cc4c5c(c3)CCCN5CCC4)[o+]c(-c3ccc(C)c(C)c3)c2)cc1C.F[B-](F)(F)F [6jc-69-3] | >=64 | <.78125 | ≥ 64 µg/mL | ≥ 64 µg/mL | 4 µg/mL | ≥ 64 µg/mL | >=64 | 4 | ≥ 64 µg/mL | ≥ 64 µg/mL | 4 µg/mL | 2.83 | ≥ 64 µg/mL | 0.6 ± 0.1 µM
Clc1ccc(-c2cc(/C=C/c3cc4c5c(c3)CCCN5CCC4)[o+]c(-c3ccc(Cl)cc3)c2)cc1.F[B-](F)(F)F [6jc-69-4] | >=64 | 3.09 | ≥ 64 µg/mL | ≥ 64 µg/mL | 8 µg/mL | ≥ 64 µg/mL | >=64 | 5.66 | ≥ 64 µg/mL | ≥ 64 µg/mL | 8 µg/mL | 4 | ≥ 64 µg/mL | 30.3 ± 0.5 µM
Brc1ccc(-c2cc(/C=C/c3cc4c5c(c3)CCCN5CCC4)[o+]c(-c3ccc(Br)cc3)c2)cc1.F[B-](F)(F)F [6jc-69-5] | >=64 | 4.43 | ≥ 64 µg/mL | ≥ 64 µg/mL | 64 µg/mL | ≥ 64 µg/mL | >=64 | 11.31 | ≥ 64 µg/mL | ≥ 64 µg/mL | ≥ 64 µg/mL | 6 | ≥ 64 µg/mL | 32.7 ± 2 µM
C(=C\c1c[nH]c2ccccc12)/c1cc(-c2ccccc2)cc(-c2ccccc2)[o+]1.F[B-](F)(F)F [Jc-49-1] | >=64 | 2.2 | ≥ 64 µg/mL | ≥ 64 µg/mL | 8 µg/mL | ≥ 64 µg/mL | >=64 | 16 | ≥ 64 µg/mL | ≥ 64 µg/mL | 8 µg/mL | 16 | ≥ 64 µg/mL | 0.17 ± 0.05 µM
